The record followed here is patent US5279956A, “Activated protein C polypeptides and anti-peptide antibodies, diagnostic methods and systems for inhibiting activated protein C” (The Scripps Research Institute, priority 1991, dated 1994).

In general, inhibition refers to how much of the control response was suppressed. The low end stands for little suppression, the high end for strong suppression.

The test system of data set [1] is anti-(390-404) antibody. Description: Cross-competition ELISA: anti-(390-404) antibody binding to immobilized PC with fluid-phase competitors. More on the design: species or system rabbit. As to conditions: fluid-phase competitor. The method, then:
FIG. 1 illustrates anti-(390-404) antibody binding to immobilized Protein C (PC) in the presence of fluid-phase PC, peptide-(390-404), -(404-390) and -K395A-(390-404). […] Before admixing 2 μg/ml anti-(390-404) antibody to PC-coated wells, the anti-(390-404) antibody was admixed with 0 to 200 μg/ml of either PC, 0 to 1000 μM peptide (-390-404), 0 to 1000 μM peptide-(404-390), or 0-200 μM peptide-K395A-(390-404) for 30 minutes at 37° C. Following biotinylated-goat-anti-rabbit-IgG and streptavidin-alkaline-phosphatase immunoreactions as described in Example 2c, bound anti-(390-404) antibody was detected by addition of 5 milligrams/milliliter (mg/ml) p-nitrophenylphosphate in 0.1M diethanolamine at pH 9.6 followed by measuring of the change in absorbance at 405 nm over time. The amount of anti-(390-404) specifically bound to PC coated wells in the absence of any competing protein was defined as 100%. […]
The specificity of anti-(390-404) antibody for peptide-(390-404) and PC was confirmed by cross-competition binding experiments. […] Bound anti-(390-404) antibody to immobilized PC in the presence of competitors was detected as described in Example 2c.
(ELISA stands for enzyme-linked immunosorbent assay.)

Data set [2] concerns anti-(390-404) antibody. Description: Solid-phase ELISA: binding of anti-(390-404) antibody to immobilized peptides and PC. The arrangement: species or system rabbit. The method, then:
To determine the immunospecificity of the rabbit antisera obtained in Example 2b, ELISA assays were performed. Briefly, 50 μl of either 50 μM peptide-(390-404) prepared in Example 1 or 10 μg/ml of PC or APC prepared in Example 2c in a buffer consisting of 0.05M sodium carbonate (Na2 CO3) and 0.02% NaN3 at pH 9.0 were admixed into the wells of microtiter plates. The plates were maintained at 37° C. for one hour to permit the antigens to become operatively affixed to the well walls. After washing the antigen-coated wells with TBS, the wells were blocked with 250 μl/well of 10% bovine serum albumin (BSA) (Sigma) in TBS for one hour at 22° C. The blocking solution was then removed and the wells were subsequently washed five times with 250 μl/well of maintenance buffer (0.05M Tris-HCl, 0.1M NaCl, 0.02% NaN3, 1 mg/ml BSA, 5 mM CaCl2, 0.01% Tween 20 at pH 7.4). Fifty μl of rabbit non-immune or specific antiserum serially diluted in maintenance buffer was then admixed to the washed wells and maintained for one hour at 37° C. to allow formation of a solid liquid phase immunoreaction products. The wells were then washed three times with maintenance buffer followed by admixture of 50 μl of 2.0 μg/ml of secondary antibody (polyclonal biotinylated goat-anti-rabbit-IgG) (Pierce Biochemicals) diluted in maintenance buffer to each well for the detection of immunoreactant products. The plates were maintained for 1 hour at 37° C. after which time the secondary antibody solution was removed. After washing the wells as described above, 50 μl of 2.0 μg/ml streptavidin-alkaline-phosphatase (Pierce Biochemicals) in maintenance buffer was admixed into each well and maintained for 30 minutes at 37° C. Detection of specific immunoreaction products was obtained by admixture of 150 μl/well of 5 mg/ml p-nitrophenylphosphate (PNPP) (Pierce Biochemicals) in 0.1M diethanolamine and 0.02% NaN3 at pH 9.6 followed by measurement of the change in absorbance at 405 nm over time using the EL312 Microplate Bio-Kinetics Reader and the KinetiCalc Software Program (Biotek Instruments, Inc., Vt.). Non-specific binding was considered as the measured absorbance in 10% BSA blocked wells which served as negative controls without the preceding coating of a specific protein or peptide. Under the described conditions, non-specific binding never exceeded more than 5% of the specific binding.
The specificity of immunoaffinity purified anti-(390-404) antibody towards peptide-(390-404) and PC was evaluated by measuring the binding in solid-phase ELISA of the antibody to immobilized peptides including -(384-398), -(390-404), -(396-410), -(404-390), and -K395A-(390-404) listed in Table 1 with their corresponding SEQ ID NO, and to PC. […]

Data set [3] is described as follows: Solubility of peptide in buffer solutions. Format: physicochemical. As to conditions: concentrations higher than 36 μM. As to the method: Purified peptides were separately resuspended in distilled water to form a dissolved peptide solution at a final concentration of 2.5 mM. Subsequently, […] containing 0.05M Tris hydroxymethyl aminomethanehydrochloride (Tris-HCl) at pH 7.4 (TBS-Az) 0.1M sodium chloride (NaCl), 0.02% sodium azide (NaN3). The pH of the solution was checked, and if necessary, adjusted to pH 7.4 with titrated amounts of 1M Tris-base. For peptides that appeared to be not completely soluble at 2.5 mM in TBS-Az, the partially dissolved peptide suspensions separately were centrifuged at 13,000×g to pellet the insoluble material. The molar concentrations in the resultant individual supernatants were estimated from the absorbance at 280 nm and 257 nm, respectively, for peptide solutions containing aromatic amino acids using a molar extinction coefficient of 5,600 M^-1 cm^-1 for tryptophan and 1,400 M^-1 cm^-1 for tyrosine at 280 nm, using a molar extinction coefficient of 200 M^-1 cm^-1 for phenylalanine at 257 nm. Peptides without aromatic amino acids and poor solubility in aqueous solutions were not evaluated in this invention.

The target of data set [4] is T1, APC (Homo sapiens, UniProt P04070).
T1 construct: begins at amino acid residue position 158 and ends at 419; The light chain is 155 amino acid residues in length; tissue Factor IX concentrate from Immuno AG, Vienna; thrombin from Enzyme Research Laboratories
T1 sequence (P04070 212-461): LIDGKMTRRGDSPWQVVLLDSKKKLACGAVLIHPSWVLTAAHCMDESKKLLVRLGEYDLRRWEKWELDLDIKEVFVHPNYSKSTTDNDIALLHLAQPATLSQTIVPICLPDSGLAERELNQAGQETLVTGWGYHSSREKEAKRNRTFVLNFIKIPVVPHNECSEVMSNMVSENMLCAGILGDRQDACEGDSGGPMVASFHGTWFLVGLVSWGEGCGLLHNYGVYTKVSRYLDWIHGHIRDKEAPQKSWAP
T1 sequence (P04070 43-197): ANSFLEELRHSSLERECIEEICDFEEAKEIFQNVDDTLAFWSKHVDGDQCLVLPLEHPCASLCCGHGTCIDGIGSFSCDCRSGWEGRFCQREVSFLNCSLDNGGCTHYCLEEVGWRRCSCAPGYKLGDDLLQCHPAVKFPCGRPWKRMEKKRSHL
Description: APC anticoagulant activity, APTT and Xa-1-stage coagulation assays (mean or both). As to conditions: measured at 36 μM peptide. The data set is classed as biochemical. As to the method:
The effect of the synthetic peptides on APC anticoagulant activity were determined using the APTT assay in the presence of either normal citrate anticoagulated plasma (NHP) or protein S depleted plasma (PSDP). The assays were performed essentially as described. See Marlar et al., Blood, 59:1067-1072 […]; Suzuki et al., J. Biol. Chem., 258:163-168 (1983); Gruber et al., Blood, 73:639-642 (1989); Ohlin et al., Biochem., 29:644-651 (1990). NHP was purchased from George King Bio-Medical, Inc. (Overland Park, Kans.). PSDP was prepared from a normal human citrate-anticoagulated plasma pool from ten healthy donors. Protein S was immunodepleted from the NHP by immunoaffinity chromatography of NHP over an anti-protein S antibody column to form PSDP. The anti-protein S antibody column was prepared by coupling 100 mg of a monoclonal, high-affinity, calcium-independent anti-PS antibody, designated S7, to 30 ml of CNBr-activated Sepharose 4B (Pharmacia) as described in Example 2c1).
For the APTT assay, APC was prepared as described in Example 2c2). […] The concentration of the APC used in the assay was initially optimized with respect to the sensitivity of the assay towards APC-induced prolongation of clotting time compared to clotting time without APC.
Once the optimal concentration of APC was determined, peptides from Table 2 were then separately admixed for a final concentration of 500 μM with 10 nM APC in 100 μl of TBS-BSA at pH 7.4 to form peptide-APC admixtures. The resulting admixtures were maintained for seven minutes at 37° C. Separate aliquots of peptides maintained under the same conditions in the absence of APC served as controls for the inhibitory effect of synthetic peptides on APC anticoagulant activity. After the maintenance period, 100 μl of NHP and 100 μl APTT-reagent Thrombosil (Ortho Diagnostics, Raritan, N.J.) were admixed into each peptide admixture and maintained for 200 seconds at 37° C. to form a pre-coagulation admixture. In some experiments, PSDP was used in the place of NHP to determine the effect of Protein S on the assay system. Coagulation was then initiated by the admixture of 100 μl of 30 mM CaCl2 in TBS prewarmed to 37° C. to each of the pre-coagulation admixtures. The time for clot formation was measured by an Electra 700 Automatic Coagulation Timer (Medical Laboratory Automation, Inc., Mount Vernon, N.Y.). Each peptide's effect was determined in duplicate.
The synthetic peptides listed in Table 4 are presented in the same order as listed in Table 2, i.e., are reproduced from Table 2. […] For peptides at a concentration of 500 μM that inhibited at least 50% of APC anticoagulant activity, analysis of dose-response was subsequently conducted. The column in Table 4 labeled "Inhibition of APC" represents the inhibition of APC anticoagulant activity measured with 500 μM peptide.
For testing the inhibition of the synthetic peptides on APC activity described above, Xa-1-stage coagulation assays were also performed as described. See Seegers et al., Thrombosis Res., 13:233-243 (1978); Marlar et al., supra; and Walker et al., J. Biol. Chem. 265:1484-1489 (1990).

No end group written: not given here.

Regarding “Protein C: human Protein C zymogen immunoaffinity-purified from plasma factor IX concentrate”, in data set [1], the “competition with binding of anti-(390-404) antibody to immobilized PC” value is listed as “competed significantly”. Also, in data set [1] (2 μg/ml antibody, 10 μg/ml PC coated, read-out: Half-maximal inhibition of anti-(390-404) antibody binding to immobilized PC), the IC50 was ~9.2 nM. For the same substance, the “binding of anti-(390-404) antibody to immobilized peptide or PC” value in data set [2] (solid-phase ELISA) is recorded as “Significant immunoreactivity”. In addition, the “Anti-(390-404) (Absorbance/20 min.)” value in data set [2] (wells coated with 50 μM peptide or 10 μg/ml PC, 2 μg/ml anti-(390-404) antibody, mean of duplicates) came out at 249 Absorbance/20 min.
Take “YGVYTAVSRYLDWIH-NH2 [peptide-K395A-(390-404), YGVYTAVSRYLDWIH]”: the “solubility in buffer solutions” value in data set [3] is “limitations of solubility in buffer solutions”. The substance also returned an inhibition at 36 µM in data set [4] of 23%.
